Results on 22 molecules are retold here after the supplement of paper PMC10949913.

What all share (details): 48 h
Test [1] deals with CU-ACC1. The test can be described thus: AC50 viability; higher = less potent. Put shortly: (§1)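 Three adrenocortical carcinoma cell lines were exposed for 48 h to library compounds at 11 concentrations in 1,536-well plates, then read by CellTiter-Glo luminescence. Signals were scaled per plate against vehicle and empty-well controls. From fitted concentration-response curves of inhibitory or non-responding classes alone, AC50 and area under the curve were obtained.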

In test [2] the test system is NCI-H295R. Nature of the test: AC50 viability; higher = less potent. The gist of the method:
as §1

Test [3] has as its system CU-ACC1. Nature of the test: area under concentration-response curve (viability) (AUC (a.u.)); higher = less active. The gist of the method: as §1
Test [4] concerns NCI-H295R. Described as above. The gist of the method: as §1
Another test concerns CU-ACC2. Described as above. Put shortly: as §1

In the case of `O=C([O-])C[C@H](O)C[C@H](O)/C=C/c1c(C2CC2)nc2ccccc2c1-c1ccc(F)cc1`, the AC50 viability in the test with CU-ACC1 [1] was determined as 4.68 µM; with NCI-H295R [2], 10.5 µM. For the same molecule, the “area under concentration-response curve” value was determined as 394 in the test on CU-ACC1 [3], 464 with NCI-H295R [4] and 478 in the test with CU-ACC2.

Take `C[C@H]1O[C@H](C[C@H](O)[C@@H]1O)O[C@H]2[C@@H](O)C[C@@H](O[C@@H]2C)O[C@H]3[C@@H](O)C[C@@H](O[C@@H]3C)O[C@H]4CC[C@@]5(C)[C@H](CC[C@@H]6[C@@H]5C[C@@H](O)[C@]7(C)[C@H](CC[C@]67O)C/8=C/C(=O)OC8)C4`: the figures for the AC50 viability with CU-ACC1 [1] and in the test on NCI-H295R [2] were 0.0372 µM and 0.118 µM, respectively. The “area under concentration-response curve” value came out at 255 with CU-ACC1 [3], 269 with NCI-H295R [4] and 349 in the test with CU-ACC2.

In the case of `CC(C)n1nc(-c2ccc3oc(N)nc3c2)c2c(N)ncnc21`, the values for the AC50 viability with CU-ACC1 [1] and in the test with NCI-H295R [2] were 0.0372 µM and 0.166 µM, respectively. The “area under concentration-response curve” value with CU-ACC1 [3] is 338; in the test on NCI-H295R [4], 404; with CU-ACC2, 455.

In the case of `C[C@@H]1O[C@@H](O[C@@H]2C=C3CC[C@@H]4[C@H](CC[C@]5(C)[C@@H](c6ccc(=O)oc6)CC[C@]45O)[C@@]3(C)CC2)[C@H](O)[C@H](O)[C@H]1O`, the figures for the AC50 viability in the test on CU-ACC1 [1] and in the test on NCI-H295R [2] were 0.0148 µM and 0.0332 µM, respectively. Also, the “area under concentration-response curve” value with CU-ACC1 [3] was found to be 219; in the test with NCI-H295R [4], 277; in the test on CU-ACC2, 307.

`Cc1cc(C)c([S+](=O)([O-])N(CCc2cccc(Br)c2)Cc2ccc(-c3cccc([S+](C)(=O)[O-])c3)cc2)c(C)c1`: the AC50 viability in the test on CU-ACC1 [1] was determined as 0.833 µM; in the test on NCI-H295R [2], 7.42 µM. Besides, the results for the “area under concentration-response curve” value with CU-ACC1 [3], in the test with NCI-H295R [4] and in the test with CU-ACC2 were 412, 442 and 417, respectively.

For the molecule `CCc1cncnc1N1CCN(Cc2nc3cc(C(F)(F)F)ccc3[nH]2)CC1`, the AC50 viability with CU-ACC1 [1] and in the test with NCI-H295R [2] was 20.9 µM throughout. Moreover, the “area under concentration-response curve” value with CU-ACC1 [3] worked out at 438; in the test with NCI-H295R [4] it was 502; in the test with CU-ACC2, 590.

Take `C/C(=N\Nc1nnc2c(n1)[nH]c1c(C)cccc12)c1ccccn1`: the AC50 viability is 2.35 µM in the test with CU-ACC1 [1] and 9.34 µM in the test on NCI-H295R [2]. In addition, the “area under concentration-response curve” value in the test with CU-ACC1 [3] was 403; with NCI-H295R [4], 415; with CU-ACC2 it was 533.

For `O=C(CCCCCCC(=O)Nc1cccnc1)NO`, the results for the AC50 viability in the test on CU-ACC1 [1] and with NCI-H295R [2] were 9.34 µM and 13.2 µM, respectively. Also, the “area under concentration-response curve” value in the test with CU-ACC1 [3] is 489; in the test with NCI-H295R [4], 533; in the test with CU-ACC2, 589.

As for `Cc1cnc(Nc2ccc(N3CCN(C)CC3)cc2)nc1Nc1cccc([S+](=O)([O-])NC(C)(C)C)c1`, the AC50 viability turned out to be 14.8 µM in the test with CU-ACC1 [1] and 9.34 µM in the test with NCI-H295R [2]. The “area under concentration-response curve” value with CU-ACC1 [3] is 466; in the test on NCI-H295R [4] it was 421; with CU-ACC2, 529.

For `CC(=O)Nc1ccc(C(=O)Nc2ccccc2N)cc1`, the AC50 viability is 7.42 µM in the test with CU-ACC1 [1] and 18.6 µM in the test on NCI-H295R [2]. Further, the “area under concentration-response curve” value turned out to be 413 in the test on CU-ACC1 [3], 445 with NCI-H295R [4] and 408 in the test with CU-ACC2.

Regarding `FC(F)c1nc2ccccc2n1-c1nc(N2CCOCC2)nc(N2CCOCC2)n1`, the AC50 viability came to 0.59 µM with CU-ACC1 [1] and 0.934 µM in the test on NCI-H295R [2]. Also, the “area under concentration-response curve” value in the test on CU-ACC1 [3] amounted to 413; with NCI-H295R [4] it was 399; in the test with CU-ACC2, 487.

For `COc1ccc(CCN(C)CCCC(C#N)(c2ccc(OC)c(OC)c2)C(C)C)cc1OC` (stereo not given), the AC50 viability in the test with CU-ACC1 [1] came out at 29.5 µM; in the test with NCI-H295R [2], 23.5 µM. The “area under concentration-response curve” value was 397 in the test on CU-ACC1 [3], 397 with NCI-H295R [4] and 490 with CU-ACC2.

Take `O=C(/C=C\n1cnc(-c2cc(C(F)(F)F)cc(C(F)(F)F)c2)n1)N1CC(F)(F)C1`: the AC50 viability in the test on CU-ACC1 [1] was found to be 1.32 µM; with NCI-H295R [2] it was 0.59 µM. Also, the “area under concentration-response curve” value with CU-ACC1 [3] came to 448; with NCI-H295R [4] it was 456; in the test on CU-ACC2 it was 467.

In the case of `Cc1cccc(-c2[nH]c(C(C)(C)C)nc2-c2ccc3c(c2)OCO3)n1`, the AC50 viability in the test with CU-ACC1 [1] was 5.25 µM; in the test on NCI-H295R [2], 11.8 µM. For the same molecule, the figures for the “area under concentration-response curve” value with CU-ACC1 [3], with NCI-H295R [4] and in the test with CU-ACC2 were 426, 481 and 595, respectively.

`CCc1ccc(C(=O)Nc2cc(CN3CCN(C)CC3)cc(C(F)(F)F)c2)cc1C#Cc1cnc2ccnn2c1`: the AC50 viability with CU-ACC1 [1] was 7.42 µM; in the test with NCI-H295R [2] it was 8.33 µM. For the same molecule, the “area under concentration-response curve” value with CU-ACC1 [3] came out at 453; in the test on NCI-H295R [4], 431; with CU-ACC2 it was 559.

In the case of `CNC(=O)Nc1ccc(-c2nc(N3CC4CCC(C3)O4)c3cnn(C4CCC5(CC4)OCCO5)c3n2)cc1`, the results for the AC50 viability in the test with CU-ACC1 [1] and with NCI-H295R [2] were 0.148 µM and 1.05 µM, respectively. Also, the “area under concentration-response curve” value stood at 404 in the test on CU-ACC1 [3], 455 in the test on NCI-H295R [4] and 520 in the test with CU-ACC2.

For `CC1(C)OCCn2c1nc1c(N3CCOCC3)nc(-c3cnc(N)nc3)nc12`, the AC50 viability with CU-ACC1 [1] turned out to be 1.18 µM; in the test with NCI-H295R [2], 1.86 µM. The figures for the “area under concentration-response curve” value in the test with CU-ACC1 [3], with NCI-H295R [4] and in the test with CU-ACC2 were 395, 430 and 500, respectively.

Regarding `CN1CCN(c2ccc3nc(-c4cc(C(C)(C)C)c(OCCCC(=O)NCCCN=[N+]=[N-])c(C(C)(C)C)c4)[nH]c3c2)CC1`, the AC50 viability with CU-ACC1 [1] and with NCI-H295R [2] was 7.42 µM throughout. The “area under concentration-response curve” value with CU-ACC1 [3] came to 462; with NCI-H295R [4], 508; with CU-ACC2, 566.

In the case of `C[C@H]1[C@H](O)O[C@@H]2O[C@@]3(C)CC[C@H]4[C@H](C)CC[C@@H]1[C@@]24OO3`, the AC50 viability was determined as 6.61 µM in the test on CU-ACC1 [1] and 20.9 µM in the test with NCI-H295R [2]. The “area under concentration-response curve” value stood at 494 in the test on CU-ACC1 [3], 549 in the test on NCI-H295R [4] and 604 in the test on CU-ACC2.

On to `CCCOc1ccc(CCc2nc3cc(-c4c(C)noc4C)ccc3n2CCN2CCOCC2)cc1`, for which the AC50 viability was determined as 14.8 µM in the test on CU-ACC1 [1] and 20.9 µM in the test with NCI-H295R [2]. Also, the entries for the “area under concentration-response curve” value in the test with CU-ACC1 [3], in the test with NCI-H295R [4] and with CU-ACC2 were 482, 479 and 567, respectively.

For `COc1c(N2C[C@@H]3CCCN[C@@H]3C2)c(F)cc2c(=O)c(C(=O)O)cn(C3CC3)c12.Cl.O`, the values for the AC50 viability in the test with CU-ACC1 [1] and in the test with NCI-H295R [2] were 0.525 µM and 0.118 µM, respectively. In addition, the “area under concentration-response curve” value in the test with CU-ACC1 [3] worked out at 400; in the test on NCI-H295R [4], 399; in the test on CU-ACC2 it was 484.

Take `Nc1n[n+]([O-])c2ccccc2[n+]1[O-]`: the AC50 viability in the test with CU-ACC1 [1] was determined as 29.5 µM; with NCI-H295R [2], 20.9 µM. Moreover, the “area under concentration-response curve” value in the test with CU-ACC1 [3] was 474; in the test with NCI-H295R [4], 529; in the test on CU-ACC2, 617.
